Patent US7601745B2, “Heterocyclic NF-kB inhibitors” (4SC AG, priority 2004, dated 2009)

The compounds below were run on A549-NF-κB-SEAP reporter cells (assay: Inhibition of NF-κB-induced inflammation ([…] NINA Instant Assay, SEAP reporter)). Conditions: NF-κB inflammation assay.
Format: cell-based
Text: For the determination of anti-inflammatory activity of the compounds the […]® NINA Instant Assay from Cell Culture Service GmBH was used. This assay is based on recombinant A549-NF-κB-SEAP reporter cells preseeded in 96-well flat bottom plates. As the transfected reportergen for SEAP (secreted embryonic alkaline phosphatase) is under transcriptional control of a NF-κB-responsive element, the expression of this reporter is activated upon stimulation with TNF-α. SEAP secretion into the culture supernatant can be detected by the chemiluminescent substrate CSPD®. Test compounds that inhibit the NF-κB activation show reduced SEAP activity and reduced luminescent readout.
Following 18 h of reactivation at 37° C., 5% CO2 and 90% relative humidity, the cells were incubated with 0.01 up to 100 μM of test compound for 4.5 h before stimulation with 2 ng/ml TNF-α. After stimulation with TNF-α for 22 h endogenous phosphatases were inactivated and CSPD® substrate was supplied for 40 min. SEAP activity then was quantified by measuring luminescence as relative light units (RLU) using a Tecan Ultra reader. Each data point was recorded in quadruplicates and EC50 values were calculated via fitting function and the Microsoft Excel Solver.

Row | SMILES | Biological activity (inhibition in the NF-κB inflammation assay)
1 | NC(=Nc1nc2ccccc2[nH]1)NC(=O)c1csc(NC(=O)Nc2ccccc2OC(F)(F)F)n1 [compound 54] | +++ (“+++” stands for 90-100% inhibition)
2 | Cc1cc2nc(NC(=O)c3csc(NC(=O)c4ccccc4OC(F)(F)F)n3)[nH]c2cc1C [compound 25] | +++ (“+++” stands for 90-100% inhibition)

Same assay, conditions: compounds of formula (I); TNF-α stimulated reporter cells; test concentration not given

Row | SMILES | Biological activity (NF-κB inflammation assay, inhibition)
3 | O=C(c1csc(C2CCN(S(=O)(=O)Cc3ccccc3)CC2)n1)N1CCN(c2cccc(C(F)(F)F)c2)CC1 [compound 198] | + (“+” stands for 50-80% inhibition)
4 | O=C(c1csc(C2CCN(C(=O)c3ccccc3OC(F)(F)F)CC2)n1)N(CCc1ccccc1)Cc1ccccc1 [compound 149] | + (“+” stands for 50-80% inhibition)
5 | COc1ccc(N2CCC(c3nc(C(=O)N4CCN(c5cccc(C(F)(F)F)c5)CC4)cs3)CC2)c(OC)c1 [compound 153] | + (“+” stands for 50-80% inhibition)
6 | N#Cc1ccc(N2CCC(c3nc(C(=O)N4CCN(c5cccc(C(F)(F)F)c5)CC4)cs3)CC2)cc1 [compound 112] | + (“+” stands for 50-80% inhibition)
7 | O=C(O)C=CC(=O)N1CCC(c2nc(C(=O)N3CCN(c4cccc(C(F)(F)F)c4)CC3)cs2)CC1 [compound 191] | + (“+” stands for 50-80% inhibition)
8 | O=C(c1csc(C2CCN(S(=O)(=O)c3cc(C(F)(F)F)cc(C(F)(F)F)c3)CC2)n1)N1CCN(c2cccc(C(F)(F)F)c2)CC1 [compound 201] | ++ (“++” means 80-90%)
9 | COc1cc(N2CCN(C(=O)c3csc(C4CCN(C(=O)c5ccccc5OC(F)(F)F)CC4)n3)CC2)nc(OC)n1 [compound 130] | + (“+” stands for 50-80% inhibition)
10 | O=C(c1csc(C2CCN(Cc3ccc(F)cc3Cl)CC2)n1)N1CCN(c2cccc(C(F)(F)F)c2)CC1 [compound 171] | + (“+” stands for 50-80% inhibition)
11 | O=C(c1csc(C2CCN(c3ccc4c(c3)OCCO4)CC2)n1)N1CCN(c2cccc(C(F)(F)F)c2)CC1 [compound 157] | + (“+” stands for 50-80% inhibition)
12 | COc1cccc(CN2CCC(c3nc(C(=O)N4CCN(c5cccc(C(F)(F)F)c5)CC4)cs3)CC2)c1 [compound 173] | + (“+” stands for 50-80% inhibition)
13 | Cn1nc(C(C)(C)C)cc1C(=O)N1CCC(c2nc(C(=O)N3CCN(c4cccc(C(F)(F)F)c4)CC3)cs2)CC1 [compound 216] | ++ (“++” means 80-90%)
14 | O=C(c1csc(C2CCN(S(=O)(=O)c3ccccc3Br)CC2)n1)N1CCN(c2cccc(C(F)(F)F)c2)CC1 [compound 196] | + (“+” stands for 50-80% inhibition)

Same assay, conditions: compounds of formula (II); TNF-α stimulated reporter cells; test concentration not given

Row | SMILES | Biological activity (NF-κB inflammation assay, inhibition)
15 | O=C(c1ccc(C(F)(F)F)c(F)c1)N1CCN(c2nc(C(=O)N3CCN(c4cccc(C(F)(F)F)c4)CC3)cs2)CC1 [compound 60] | +++ (“+++” stands for 90-100% inhibition)
16 | O=C(c1csc(N2CCNCC2)n1)N1CCN(c2cccc(C(F)(F)F)c2)CC1 [compound 64] | + (“+” stands for 50-80% inhibition)
17 | O=C(c1csc(N2CCN(Cc3ccccc3)CC2)n1)N1CCN(c2cccc(C(F)(F)F)c2)CC1 [compound 72] | +++ (“+++” stands for 90-100% inhibition)

Same assay, conditions: compounds of formula (Ia); TNF-α stimulated reporter cells; test concentration not given

Row | SMILES | Biological activity (NF-κB inflammation assay, inhibition)
18 | Cc1cc(NC(=O)N2CCC(c3nc(C(=O)N4CCN(c5cccc(C(F)(F)F)c5)CC4)cs3)CC2)c(C(F)(F)F)o1 [compound 76] | ++ (“++” means 80-90%)

Same assay, conditions: compounds of formula (Ic); TNF-α stimulated reporter cells; test concentration not given

Row | SMILES | Biological activity (NF-κB inflammation assay, inhibition)
19 | COc1cc2c(cc1OC)CN(C(=O)c1csc(C3CCN(C(=O)Cc4ccc(F)cc4)CC3)n1)C(C)C2 (centres unmarked) [compound 232] | + (“+” stands for 50-80% inhibition)
20 | CNc1ccc(Cl)cc1C1c2ccccc2CCN1C(=O)c1csc(C2CCN(C(=O)Cc3ccc(F)cc3)CC2)n1 (centres unmarked) [compound 235] | + (“+” stands for 50-80% inhibition)
